PMC11480511 (Scientific Reports, 2024)

Tests used:
[1] = test system: HL-60(TB); experiment: NCI single-dose growth inhibition screen; assay type: cell-based; conditions: Homo sapiens; Leukemia HL-60(TB); single dose 10^−5 M
[2] = test system: K-562; experiment: NCI single-dose growth inhibition screen; assay type: cell-based; conditions: Homo sapiens, K562; Leukemia K-562; single dose 10^−5 M
[3] = test system: MOLT-4; experiment: NCI single-dose growth inhibition screen; assay type: cell-based; conditions: Homo sapiens; Leukemia MOLT-4; single dose 10^−5 M
[4] = test system: RPMI-8226; experiment: NCI single-dose growth inhibition screen; assay type: cell-based; conditions: Homo sapiens; Leukemia RPMI-8226; single dose 10^−5 M
[5] = test system: A549/ATCC; experiment: NCI single-dose growth inhibition screen; assay type: cell-based; conditions: Homo sapiens; Non-Small Cell Lung Cancer A549/ATCC; single dose 10^−5 M
[6] = test system: EKVX; experiment: NCI single-dose growth inhibition screen; assay type: cell-based; conditions: Homo sapiens; Non-Small Cell Lung Cancer EKVX; single dose 10^−5 M
[7] = test system: HOP-62; experiment: NCI single-dose growth inhibition screen; assay type: cell-based; conditions: Homo sapiens; Non-Small Cell Lung Cancer HOP-62; single dose 10^−5 M
[8] = test system: HOP-92; experiment: NCI single-dose growth inhibition screen; assay type: cell-based; conditions: Homo sapiens; Non-Small Cell Lung Cancer HOP-92; single dose 10^−5 M
[9] = test system: NCI-H322M; experiment: NCI single-dose growth inhibition screen; assay type: cell-based; conditions: Homo sapiens; Non-Small Cell Lung Cancer NCI-H322M; single dose 10^−5 M
[10] = test system: NCI-H460; experiment: NCI single-dose growth inhibition screen; assay type: cell-based; conditions: Homo sapiens; Non-Small Cell Lung Cancer NCI-H460; single dose 10^−5 M
[11] = test system: NCI-H522; experiment: NCI single-dose growth inhibition screen; assay type: cell-based; conditions: Homo sapiens; Non-Small Cell Lung Cancer NCI-H522; single dose 10^−5 M
[12] = test system: SF-539; experiment: NCI single-dose growth inhibition screen; assay type: cell-based; conditions: Homo sapiens; CNS Cancer SF-539; single dose 10^−5 M
[13] = test system: SNB-19; experiment: NCI single-dose growth inhibition screen; assay type: cell-based; conditions: Homo sapiens; CNS Cancer SNB-19; single dose 10^−5 M
[14] = test system: SNB-75; experiment: NCI single-dose growth inhibition screen; assay type: cell-based, human; conditions: single dose 10^−5 M; for inhibition at 10 µM: Homo sapiens, SNB-75, CNS Cancer SNB-75
[15] = test system: LOX IMVI; experiment: NCI single-dose growth inhibition screen; assay type: cell-based, human; conditions: Melanoma LOX IMVI, single dose 10^−5 M; for inhibition at 10 µM: Homo sapiens, LOX IMVI
[16] = test system: M14; experiment: NCI single-dose growth inhibition screen; assay type: cell-based; conditions: Homo sapiens; Melanoma M14; single dose 10^−5 M
Protocol: Following the guidelines established by the drug evaluation department of the National Cancer Institute (NCI), USA, all target compounds 3a–l were examined against 60 cancer cell lines at a single concentration of 10 µM.
The anti-cancer potential of the tested compounds was evaluated at the National cancer institute (NCI), USA, against 9 panels of 60 various cell lines derived from nine human tumours available usually at NCI library. The procedures for the screening were described in details in NCI website (dttp://www.dtp.nci.nih.gov.) and were done according to NCI protocols[60] . The anticancer screening was carried out at single dose of 10^−5 M, NCI, Bethesda, USA. The results obtained as growth inhibition (%).

[17] = test system: UACC-257; experiment: NCI single-dose growth inhibition screen; assay type: cell-based; conditions: Homo sapiens; Melanoma UACC-257; single dose 10^−5 M
[18] = test system: UACC-62; experiment: NCI single-dose growth inhibition screen; assay type: cell-based; conditions: Homo sapiens; Melanoma UACC-62; single dose 10^−5 M
[19] = test system: IGROV1; experiment: NCI single-dose growth inhibition screen; assay type: cell-based; conditions: Homo sapiens, IGROV-1; Ovarian Cancer IGROV1; single dose 10^−5 M
[20] = test system: OVCAR-8; experiment: NCI single-dose growth inhibition screen; assay type: cell-based; conditions: Homo sapiens; Ovarian Cancer OVCAR-8; single dose 10^−5 M
[21] = test system: A498; experiment: NCI single-dose growth inhibition screen; assay type: cell-based, human; conditions: Homo sapiens, A498, Renal Cancer A498; single dose 10^−5 M
[22] = test system: UO-31; experiment: NCI single-dose growth inhibition screen; assay type: cell-based, human; conditions: single dose 10^−5 M; for inhibition at 10 µM: Homo sapiens, UO-31, Renal Cancer UO-31
[23] = test system: MCF7; experiment: NCI single-dose growth inhibition screen; assay type: cell-based, human; conditions: Homo sapiens, MCF7, Breast Cancer MCF7; single dose 10^−5 M
[24] = test system: HS 578T; experiment: NCI single-dose growth inhibition screen; assay type: cell-based; conditions: Homo sapiens; Breast Cancer HS 578T; single dose 10^−5 M
[25] = test system: BT-549; experiment: NCI single-dose growth inhibition screen; assay type: cell-based; conditions: Homo sapiens; Breast Cancer BT-549; single dose 10^−5 M
[26] = test system: T-47D; experiment: NCI single-dose growth inhibition screen; assay type: cell-based; conditions: Homo sapiens, T47D; Breast Cancer T-47D; single dose 10^−5 M
[27] = test system: PC-3; experiment: NCI single-dose growth inhibition screen; assay type: cell-based; conditions: Homo sapiens; Prostate Cancer PC-3; single dose 10^−5 M
[28] = test system: DU-145; experiment: NCI single-dose growth inhibition screen; assay type: cell-based; conditions: Homo sapiens; Prostate Cancer DU-145; single dose 10^−5 M
[29] = test system: S. aureus ATCC 6538; experiment: Antibacterial screening, agar cup diffusion method; assay type: cell-based; conditions: Staphylococcus aureus, ATCC6538; Gram + ve strain; read-out: Minimum inhibitory concentrations (MIC, µM) S. aureus ATCC 6538
Protocol: (§1) Anti-bacterial activity of the recently synthesized compounds 3a-k was evaluated at AUMC (Assiut University Mycological Centre), Assiut, Egypt. Assays were done against Gram-negative strains of K. pneumoniae (ATCC 100310, E. coli (ATCC 25922), Pseudomonas aeruginosa (ATCC 27853) and the Gram-positive S. aureus (ATCC 6538) strain utilizing standard agar cup diffusion method. The isolates from the four bacterial species examined were kept in TSB (Trypticase Soya Broth, Becton and Dickinson) with 10% glycerol at -70 °C and then subcultured on TSA (Trypticase Soya Agar, Becton and Dickinson) and TSB for 24 h at 37 °C former to inoculation. Bacterial isolates were then plated on sterile petri plates with 1 × 10^8 CFU/mL (0.5 McFarland turbidity) and 20 mL of Mueller Hinton Agar media (Oxoid) was then loaded. To ensure that the microorganisms were evenly dispersed, the plates were gently rotated before being left to harden on a level surface. Four equally spaced spherical-shaped wells (10 mm diameter) were painstakingly drilled using a sterilized cork bore after media solidification. All tested compounds under test underwent two-fold serial dilutions in a sequential manner. Three replications of 100 µL of each concentration were added to a well using a micropipette. Plates were then incubated for 24-hour at 37 °C. The average of the inhibition zones was then calculated. To determine the MICs, the natural logarithm of each diluted test substance’s concentration was plotted against the average area of the related inhibition zone. Following that, a regression line was created and the intercept on the ‘ln concentration” axis was determined, and the antilogarithm was calculated to indicate the MIC value[34],[63].

[30] = test system: P. aeruginosa ATCC 27,853; experiment: Antibacterial screening, agar cup diffusion method; assay type: cell-based; conditions: Pseudomonas aeruginosa, ATCC27; Gram –ve strain; read-out: Minimum inhibitory concentrations (MIC, µM) P. aeruginosa ATCC 27,853
Protocol: as §1

[31] = test system: human melanoma LOX IMVI; experiment: cells
[32] = test system: A498 renal cancer cell line; experiment: cells; conditions: Homo sapiens

Structure (SMILES) | inhibition at 10 µM [1] [%] | inhibition at 10 µM [2] [%] | inhibition at 10 µM [3] [%] | inhibition at 10 µM [5] [%] | inhibition at 10 µM [6] [%] | inhibition at 10 µM [7] [%] | inhibition at 10 µM [8] [%] | inhibition at 10 µM [9] [%] | inhibition at 10 µM [10] [%] | inhibition at 10 µM [12] [%] | inhibition at 10 µM [13] [%] | inhibition at 10 µM [15] [%] | inhibition at 10 µM [16] [%] | inhibition at 10 µM [17] [%] | inhibition at 10 µM [18] [%] | inhibition at 10 µM [19] [%] | inhibition at 10 µM [20] [%] | inhibition at 10 µM [22] [%] | inhibition at 10 µM [23] [%] | inhibition at 10 µM [26] [%] | other results
O=C(O)c1cn(C2CC2)c2cc(N3CCN(C(=O)CCCN4C(=O)S/C(=C\c5ccc(Cl)cc5)C4=O)CC3)c(F)cc2c1=O [3 h] | < 0 | 0.7 | < 0 | 3.4 | 2.1 | 2.9 | 9.7 | 11.8 | 0 | 1.2 | 0 | 38.2 | 0.7 | 5.1 | 6.2 | < 0 | 5.3 | 28 | < 0 | 2 | inhibition at 10 µM [4]: < 0%; inhibition at 10 µM [11]: 18.3%; inhibition at 10 µM [14]: 15.5%; inhibition at 10 µM [21]: 7.7%; inhibition at 10 µM [24]: < 0%; inhibition at 10 µM [25]: 3.8%; inhibition at 10 µM [27]: < 0%; inhibition at 10 µM [28]: < 0%; MIC [29]: > 20 µM; MIC [30]: > 20 µM
Cc1ccc(/C=C2\SC(=O)N(CCCC(=O)N3CCN(c4cc5c(cc4F)c(=O)c(C(=O)O)cn5C4CC4)CC3)C2=O)cc1 [3c] | 6.2 | < 0 | < 0 | < 0 | 2.4 | < 0 | < 0 | < 0 | < 0 | 0.9 | < 0 | 3.5 | < 0 | < 0 | 4.2 | 3.2 | < 0 | 16.5 | < 0 | < 0 | inhibition at 10 µM [11]: 1.7%; inhibition at 10 µM [21]: 5.3%; inhibition at 10 µM [24]: < 0%; inhibition at 10 µM [27]: 1.1%; inhibition at 10 µM [28]: < 0%; MIC [29]: > 20 µM; MIC [30]: > 20 µM
O=C(O)c1cn(C2CC2)c2cc(N3CCN(C(=O)CCCN4C(=O)S/C(=C\c5ccc([N+](=O)[O-])cc5)C4=O)CC3)c(F)cc2c1=O [3k] | < 0 | < 0 | < 0 | 5.5 | 24.4 | 19.7 | 0.2 | < 0 | < 0 | 6 | < 0 | 8.88 | < 0 | < 0 | 2 | 15.9 | < 0 | 42 | < 0 | < 0 | inhibition at 10 µM [4]: 8.7%; Growth Inhibition (%) ([14]; CNS Cancer SNB-75): 42.5%; inhibition at 10 µM [14]: 42.5%; Growth Inhibition (%) [15]: 8.9%; Growth Inhibition (%) ([22]; Renal Cancer UO-31): 41.1%; inhibition at 10 µM [25]: 1%; inhibition at 10 µM [27]: < 0%; inhibition at 10 µM [28]: 7%; MIC [29]: > 20 µM; MIC [30]: > 20 µM; viability at 0.4 µM [31]: 110%; viability at 1.6 µM [31]: 102%; viability at 25 µM [31]: 80.2%; viability at 100 µM [31]: 65.4%; IC50 ([31]; read-out: In vitro cytotoxicity (IC50) LOX IMVI (µM ± SEM)): > 150 µM; viability at 0.4 µM ([32]; A498): 103%; viability at 1.6 µM ([32]; A498): 93.1%; viability at 25 µM ([32]; A498): 72.6%; viability at 100 µM ([32]; A498): 60.5%; IC50 ([32]; A498, read-out: In vitro cytotoxicity (IC50) A498 cell line (µM ± SEM)): > 150 µM
